# Earlier results in US20170165627A1, “MICROENCAPSULATION PROCESS” (ENCAPSYS, LLC, priority 2015, published 2017).
# Conditions: @ 25° C.
row,Solubility in water,Compound
1,40.68 mg/mL,Polyethylene glycol 200 diacrylate [SR259]
2,Water soluble,Polyethylene glycol 400 diacrylate [SR344]
3,Water soluble,polyethylene glycol (600) diacrylate [SR610]

row,Compound,Solubility in water
1,"C=CC(=O)OCCOCCOCC [SR256, 2-(2-ethoxyethoxy) ethyl acrylate]",25.33 mg/mL

# Conditions: temperature at which the initiator has a 10 hour half-life
row,Compound,10 hour ½ life at (temperature)
1,"CC(C)(N=NC(C)(C)C(=N)N)C(=N)N.Cl [Example V-50, 2,2′-azobis(2-amidinopropane) hydrochloride]",½ life at 56 °C
2,"CC(C)(N=NC(C)(C)C(=O)NCCO)C(=O)NCCO [VA-086, 2,2′-Azobis[2-methyl-N-(2-hydroxyethyl)propionamide]]",10 hour ½ life at 86 °C
3,"CCC(C)(C#N)N=NC(C)(C#N)CC (centres unmarked) [Vazo-67, 2,2′-azobis(2-methylbutyronitrile)]",67 °C
4,"N#CC1(N=NC2(C#N)CCCCC2)CCCCC1 [Vazo-88, 1,1′-Azobis(cyclohexanecarbonitrile)]",88 °C
